Two compounds from patent publication US8697691B2, “Alkyl 3-((2-amidoethyl)amino)-8-azabicyclo[3.2.1]octane-8-carboxylate analogs as selective M1 agonists and methods of making and using same” (Vanderbilt University, priority 2009, dated 2014) can be followed below.

What is called EC50 is the concentration at which the effect is half-maximal.

The target in the assay is T1, hM4 receptor (Homo sapiens, UniProt P08173).
T1 construct: host or cells: CHO-K1, additionally stably transfected with Gqi5
T1 sequence (P08173 1-479): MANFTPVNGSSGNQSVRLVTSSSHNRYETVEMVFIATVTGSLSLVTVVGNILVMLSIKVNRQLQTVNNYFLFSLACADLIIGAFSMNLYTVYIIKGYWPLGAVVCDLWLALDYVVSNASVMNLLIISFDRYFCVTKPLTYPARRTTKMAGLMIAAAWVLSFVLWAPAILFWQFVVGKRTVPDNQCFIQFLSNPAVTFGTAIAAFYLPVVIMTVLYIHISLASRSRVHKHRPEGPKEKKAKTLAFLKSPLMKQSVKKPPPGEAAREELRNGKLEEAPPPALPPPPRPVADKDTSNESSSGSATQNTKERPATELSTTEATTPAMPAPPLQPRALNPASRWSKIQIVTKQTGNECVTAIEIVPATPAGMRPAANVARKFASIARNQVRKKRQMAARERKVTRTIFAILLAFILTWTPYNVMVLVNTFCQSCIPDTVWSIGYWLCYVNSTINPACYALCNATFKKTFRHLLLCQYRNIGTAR
Put plainly: Calcium mobilization assay, CHO-K1 cells stably expressing hM4-Gqi5. In kind it is cell-based. The source says:
Chinese hamster ovary (CHO-K1) cells stably expressing rat (r)M1 were purchased from the American Type Culture Collection and cultured according to their indicated protocol. CHO cells stably expressing human (h)M2, hM3, and hM5 were described previously (Levey et al., 1991); hM1 and hM4 cDNAs were purchased from Missouri S&T cDNA Resource; rM4 cDNA was provided by T. I. Bonner (National Institutes of Health, Bethesda, Md.). hM1, hM4, and rM4 cDNAs were used to stably transfect CHO-K1 cells purchased from the American Type Culture Collection using Lipofectamine2000. […]
For low throughput measurement of agonist-evoked increases in intracellular calcium, CHO-K1 cells stably expressing muscarinic receptors were plated in 100 μL of growth medium at 5×10^4 (rM1, hM3, and hM5) or 6×10^4 cells per well (rM1 Y381A, hM2, and rM4) in Costar 96-well black-walled, tissue culture (TC)-treated, clear-bottom plates (Fisher). […] For calcium fluorescence measurements, CRCs of compounds (50 μl, 2×) were added 19 s after the beginning of data collection via a Flexstation II (Molecular Devices, Sunnyvale, Calif.). Fluorescence imaging continued for a total of 130 s acquisition time using an excitation wavelength of 488 nm, an emission wavelength of 525 nm, and a cutoff wavelength of 515 nm. […]
For orientation: Calcium flux is commonly read through the fluorescence of an indicator in the cells.

Regarding `CCOC(=O)N1[C@@H]2CC[C@H]1C[C@@H](NCCNC(=O)c1ccccc1)C2` [Example 27, ethyl 3-((3-endo)-(2-benzamidoethyl)amino)-8-azabicyclo[3.2.1]octane-8-carboxylate], the EC50 is around 3 µM.

Regarding `CCOC(=O)N1[C@@H]2CC[C@H]1C[C@H](NCCNC(=O)c1ccccc1)C2` [Example 26, ethyl 3-((3-exo)-(2-benzamidoethyl)amino)-8-azabicyclo[3.2.1]octane-8-carboxylate], the concentration giving a half-maximal response (EC50) is above 10 µM.
